Patent publication US11389447B2 (Janssen Sciences Ireland Unlimited Company, priority 2006, dated 2022)

Assay: Kinetic study: plasma kinetics of TMC278 after single IM or SC injection of a nanosuspension;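 also: healthy male beagle dogs injected in both biceps femoris muscles (IM) or both thoracal sides (SC), total volume 0.2 mL/kg, drug measured in plasma from blood samples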
Format: in vivo, male beagle dogs
Conditions: for AUC0-312 h / AUC0-696 h / AUC0-2208 h / Cmax / Tmax / plasma concentration of TMC278: single IM 5 mg eq./kg TMC278.HCl nanosuspension
Method: Six healthy male beagle dogs with body weights ranging from 8 to 16 kg at the start of the study, were used. Each dog was identified by an ear tattoo number. Two dogs were dosed intramuscularly (IM) in the left and right m. biceps femoris (treatment group A). […] Two dogs were dosed subcutaneously (SC) in the left and right thoracal region. The injection volume was 2×0.1 ml/kg in all treatment groups. A 20 G needle was used.
Blood samples of 3 ml were taken from the left jugular vein from all dogs on day 0 at 0 h (predose), 20 min, 1 h, 3 h, 8 h and 24 h post-dose and further on days 2, 3, 6, 8, 10, 13, 16, 20, 23, 27, 29, 36, 43, 50, 57, 64, 71, 78, 85 and 92 at approximately 8 AM. Blood samples were placed on EDTA, EDTA Vacuette Greiner, Cat. No. 454086, Greiner Labortechnik N.V.). Within 2 h of blood sampling, samples were centrifuged at room temperature at about 1900×g for 10 minutes to allow plasma separation. Plasma was immediately transferred into a second tube and stored in the freezer within 2 hours after the start of centrifugation.

AUC0-312 h (dog 19072): 15000 ng·h/mL
AUC0-696 h (dog 19072): 20300 ng·h/mL
AUC0-2208 h (dog 19072): 27400 ng·h/mL
Cmax (dog 19072): 85.6 ng/mL
Tmax (dog 19072): 48 h
plasma concentration of TMC278 (dog 19072, 0 h (d0, predose)): <1.00 ng/mL
plasma concentration of TMC278 (dog 19072, 1 h): 7.80 ng/mL
plasma concentration of TMC278 (dog 19072, 3 h): 14.7 ng/mL
plasma concentration of TMC278 (dog 19072, 8 h): 32.2 ng/mL
plasma concentration of TMC278 (dog 19072, 24 h (d1)): 50.1 ng/mL
plasma concentration of TMC278 (dog 19072, 48 h (d2)): 85.6 ng/mL
plasma concentration of TMC278 (dog 19072, 72 h (d3)): 47.5 ng/mL
plasma concentration of TMC278 (dog 19072, 144 h (d6)): 48.3 ng/mL
plasma concentration of TMC278 (dog 19072, 192 h (d8)): 46.8 ng/mL
plasma concentration of TMC278 (dog 19072, 240 h (d10)): 55.7 ng/mL
plasma concentration of TMC278 (dog 19072, 312 h (d13)): 27.0 ng/mL
plasma concentration of TMC278 (dog 19072, 384 h (d16)): 17.0 ng/mL
plasma concentration of TMC278 (dog 19072, 480 h (d20)): 13.7 ng/mL
plasma concentration of TMC278 (dog 19072, 648 h (d27)): 7.91 ng/mL
plasma concentration of TMC278 (dog 19072, 696 h (d29)): 10.2 ng/mL
plasma concentration of TMC278 (dog 19072, 864 h (d36)): 6.18 ng/mL
plasma concentration of TMC278 (dog 19072, 1032 h (d43)): 6.32 ng/mL
plasma concentration of TMC278 (dog 19072, 1200 h (d50)): 4.56 ng/mL
plasma concentration of TMC278 (dog 19072, 1368 h (d57)): 4.73 ng/mL
plasma concentration of TMC278 (dog 19072, 1536 h (d64)): 4.47 ng/mL
plasma concentration of TMC278 (dog 19072, 1704 h (d71)): 3.38 ng/mL
plasma concentration of TMC278 (dog 19072, 1872 h (d78)): 3.12 ng/mL
plasma concentration of TMC278 (dog 19072, 2040 h (d85)): 3.20 ng/mL
plasma concentration of TMC278 (dog 19072, 2208 h (d92)): 2.96 ng/mL
AUC0-312 h (dog 19080): 20900 ng·h/mL
AUC0-696 h (dog 19080): 30500 ng·h/mL
AUC0-2208 h (dog 19080): 39900 ng·h/mL
Cmax (dog 19080): 105 ng/mL
Tmax (dog 19080): 48 h
plasma concentration of TMC278 (dog 19080, 0 h (d0, predose)): <1.00 ng/mL
plasma concentration of TMC278 (dog 19080, 1 h): 7.19 ng/mL
plasma concentration of TMC278 (dog 19080, 3 h): 16.3 ng/mL
plasma concentration of TMC278 (dog 19080, 8 h): 27.1 ng/mL
plasma concentration of TMC278 (dog 19080, 24 h (d1)): 69.8 ng/mL
plasma concentration of TMC278 (dog 19080, 48 h (d2)): 105 ng/mL
plasma concentration of TMC278 (dog 19080, 72 h (d3)): 69.5 ng/mL
plasma concentration of TMC278 (dog 19080, 144 h (d6)): 62.3 ng/mL
plasma concentration of TMC278 (dog 19080, 192 h (d8)): 65.8 ng/mL
plasma concentration of TMC278 (dog 19080, 240 h (d10)): 82.2 ng/mL
plasma concentration of TMC278 (dog 19080, 312 h (d13)): 45.8 ng/mL
plasma concentration of TMC278 (dog 19080, 384 h (d16)): 31.9 ng/mL
plasma concentration of TMC278 (dog 19080, 480 h (d20)): 25.5 ng/mL
plasma concentration of TMC278 (dog 19080, 648 h (d27)): 14.4 ng/mL
plasma concentration of TMC278 (dog 19080, 696 h (d29)): 18.8 ng/mL
plasma concentration of TMC278 (dog 19080, 864 h (d36)): 11.4 ng/mL
plasma concentration of TMC278 (dog 19080, 1032 h (d43)): 8.18 ng/mL
plasma concentration of TMC278 (dog 19080, 1200 h (d50)): 5.68 ng/mL
plasma concentration of TMC278 (dog 19080, 1368 h (d57)): 5.08 ng/mL
plasma concentration of TMC278 (dog 19080, 1536 h (d64)): 4.43 ng/mL
plasma concentration of TMC278 (dog 19080, 1704 h (d71)): 3.90 ng/mL
plasma concentration of TMC278 (dog 19080, 1872 h (d78)): 3.20 ng/mL
plasma concentration of TMC278 (dog 19080, 2040 h (d85)): 4.00 ng/mL
plasma concentration of TMC278 (dog 19080, 2208 h (d92)): 2.81 ng/mL
AUC0-312 h (mean of 2 dogs): 18000 ng·h/mL
AUC0-696 h (mean of 2 dogs): 25400 ng·h/mL
AUC0-2208 h (mean of 2 dogs): 33600 ng·h/mL
Cmax (mean of 2 dogs): 95.3 ng/mL
Tmax (mean of 2 dogs): 48 h
plasma concentration of TMC278 (mean of 2 dogs, 0 h (d0, predose)): <1.00 ng/mL
plasma concentration of TMC278 (mean of 2 dogs, 1 h): 7.50 ng/mL
plasma concentration of TMC278 (mean of 2 dogs, 3 h): 15.5 ng/mL
plasma concentration of TMC278 (mean of 2 dogs, 8 h): 29.7 ng/mL
plasma concentration of TMC278 (mean of 2 dogs, 24 h (d1)): 60.0 ng/mL
plasma concentration of TMC278 (mean of 2 dogs, 48 h (d2)): 95.3 ng/mL
plasma concentration of TMC278 (mean of 2 dogs, 72 h (d3)): 58.5 ng/mL
plasma concentration of TMC278 (mean of 2 dogs, 144 h (d6)): 55.3 ng/mL
plasma concentration of TMC278 (mean of 2 dogs, 192 h (d8)): 56.3 ng/mL
plasma concentration of TMC278 (mean of 2 dogs, 240 h (d10)): 69.0 ng/mL
plasma concentration of TMC278 (mean of 2 dogs, 312 h (d13)): 36.4 ng/mL
plasma concentration of TMC278 (mean of 2 dogs, 384 h (d16)): 24.5 ng/mL
plasma concentration of TMC278 (mean of 2 dogs, 480 h (d20)): 19.6 ng/mL
plasma concentration of TMC278 (mean of 2 dogs, 648 h (d27)): 11.2 ng/mL
plasma concentration of TMC278 (mean of 2 dogs, 696 h (d29)): 14.5 ng/mL
plasma concentration of TMC278 (mean of 2 dogs, 864 h (d36)): 8.79 ng/mL
plasma concentration of TMC278 (mean of 2 dogs, 1032 h (d43)): 7.25 ng/mL
plasma concentration of TMC278 (mean of 2 dogs, 1200 h (d50)): 5.12 ng/mL
plasma concentration of TMC278 (mean of 2 dogs, 1368 h (d57)): 4.91 ng/mL
plasma concentration of TMC278 (mean of 2 dogs, 1536 h (d64)): 4.45 ng/mL
plasma concentration of TMC278 (mean of 2 dogs, 1704 h (d71)): 3.64 ng/mL
plasma concentration of TMC278 (mean of 2 dogs, 1872 h (d78)): 3.16 ng/mL
plasma concentration of TMC278 (mean of 2 dogs, 2040 h (d85)): 3.60 ng/mL
plasma concentration of TMC278 (mean of 2 dogs, 2208 h (d92)): 2.89 ng/mL
Structure (SMILES): Cc1cc(/C=C/C#N)cc(C)c1Nc1ccnc(Nc2ccc(C#N)cc2)n1.Cl [TMC278.HCl]
blood plasma levels after injection (in words) (injectable formulation of nanonised substance, 5 mg/kg, male beagle dogs): stable blood plasma levels during a prolonged period of time
